Test results taken from article PMC8704367, “Systematic Analysis and Biochemical Characterization of the Caffeoyl Shikimate Esterase Gene Family in Poplar” (International Journal of Molecular Sciences, 2021).

Experiments:
Type in all cases: biochemical
PoptoCSE2 = target: T1, PoptoCSE2 (Populus tomentosa, UniProt A0A0S1VWZ0); assay: HPLC-MS, appearance of caffeic acid; conditions: 100 uM substrate, 100 mM sodium phosphate pH 7.5, 0.5 mM DTT, 30 C; substrate made enzymatically with PoptoHCT6
T1 construct: gene CSE2; full-length CDS cloned from cambial zone cDNA into pET28a, His-tagged, E. coli BL21(DE3), Ni-NTA
T1 sequence (A0A0S1VWZ0 1-326): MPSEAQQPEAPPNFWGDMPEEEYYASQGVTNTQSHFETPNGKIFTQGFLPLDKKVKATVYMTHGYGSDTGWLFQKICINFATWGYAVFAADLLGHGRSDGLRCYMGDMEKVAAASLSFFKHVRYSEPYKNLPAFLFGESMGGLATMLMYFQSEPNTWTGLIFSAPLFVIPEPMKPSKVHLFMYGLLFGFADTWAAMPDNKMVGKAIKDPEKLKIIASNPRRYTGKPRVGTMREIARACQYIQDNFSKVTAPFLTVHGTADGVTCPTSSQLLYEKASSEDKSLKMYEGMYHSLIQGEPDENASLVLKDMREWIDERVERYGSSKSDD

PoptoCSE1 = target: T2, PoptoCSE1 (Populus tomentosa, UniProt A0A0S1VWX4); assay: HPLC-MS, appearance of caffeic acid; conditions: 100 uM substrate, 100 mM sodium phosphate pH 7.5, 0.5 mM DTT, 30 C; substrate made enzymatically with PoptoHCT6
T2 construct: gene CSE1; full-length CDS cloned from cambial zone cDNA into pET28a, His-tagged, E. coli BL21(DE3), Ni-NTA
T2 sequence (A0A0S1VWX4 1-326): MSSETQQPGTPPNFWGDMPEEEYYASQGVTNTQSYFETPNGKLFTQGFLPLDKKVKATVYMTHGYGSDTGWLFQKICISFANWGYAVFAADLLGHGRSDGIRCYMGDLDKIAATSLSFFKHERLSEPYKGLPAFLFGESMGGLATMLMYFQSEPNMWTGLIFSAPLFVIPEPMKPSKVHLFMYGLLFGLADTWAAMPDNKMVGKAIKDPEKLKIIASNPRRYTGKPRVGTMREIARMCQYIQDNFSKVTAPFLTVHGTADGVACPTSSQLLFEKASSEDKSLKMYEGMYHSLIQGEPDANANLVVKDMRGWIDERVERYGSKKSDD

PoptoHCT6 = target: T3, PoptoHCT6 (Populus tomentosa, UniProt A0A0S1VWY1); assay: preparative enzymatic synthesis of caffeoyl shikimate
T3 construct: gene HCT6; cloned from cambial zone cDNA into pET28a, His-tagged, E. coli BL21(DE3), Ni-NTA
T3 sequence (A0A0S1VWY1 1-431): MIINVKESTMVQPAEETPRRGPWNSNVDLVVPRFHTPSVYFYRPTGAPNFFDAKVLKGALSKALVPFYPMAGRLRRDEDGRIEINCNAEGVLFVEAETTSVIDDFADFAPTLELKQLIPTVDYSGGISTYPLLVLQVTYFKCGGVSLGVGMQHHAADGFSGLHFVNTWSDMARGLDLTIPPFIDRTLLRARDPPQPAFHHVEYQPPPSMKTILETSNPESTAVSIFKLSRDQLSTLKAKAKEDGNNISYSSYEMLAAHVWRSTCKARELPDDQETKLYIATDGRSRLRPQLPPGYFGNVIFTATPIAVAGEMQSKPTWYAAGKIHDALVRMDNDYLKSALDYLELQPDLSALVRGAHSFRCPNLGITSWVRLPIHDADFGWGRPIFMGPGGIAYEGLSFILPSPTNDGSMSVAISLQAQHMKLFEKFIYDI

O=C(/C=C/c1ccc(O)c(O)c1)O[C@@H]1CC(C(=O)O)=C[C@@H](O)[C@H]1O [caffeoyl shikimate]
HPLC-MS, appearance of caffeic acid (PoptoCSE2): PoptoCSE1 and PoptoCSE2 have detectable activity against caffeoyl shikimate
HPLC-MS, appearance of caffeic acid (PoptoCSE1): PoptoCSE1 and PoptoCSE2 have detectable activity against caffeoyl shikimate

CC(C)(COP(=O)(O)OP(=O)(O)OC[C@H]1O[C@@H](n2cnc3c(N)ncnc32)[C@H](O)[C@@H]1OP(=O)(O)O)[C@@H](O)C(=O)NCCC(=O)NCCSC(=O)/C=C/c1ccc(O)c(O)c1 [caffeoyl-CoA]
preparative enzymatic synthesis of caffeoyl shikimate (PoptoHCT6; co-substrate shikimic acid): caffeoyl shikimate using enzymatic reaction catalyzed by purified recombinant PoptoHCT6 with caffeoyl-CoA and shikimic acid

O=C(O)C1=C[C@@H](O)[C@@H](O)[C@H](O)C1 [shikimic acid]
preparative enzymatic synthesis of caffeoyl shikimate (PoptoHCT6; co-substrate caffeoyl-CoA): caffeoyl shikimate using enzymatic reaction catalyzed by purified recombinant PoptoHCT6 with caffeoyl-CoA and shikimic acid
